Reference: PMC6591397, “Functional Roles of Metabolic Intermediates in Regulating the Human Mitochondrial NAD(P)^+-Dependent Malic Enzyme” (Scientific Reports, 2019)
pIC50: −log10 of the molar value. Counter-ions that a name gives are not always drawn.

Assays:
[1] = target: T1, human m-NAD(P)-ME WT (Homo sapiens, UniProt P23368); assay: ATP/ADP inhibition of enzyme activity; format: biochemical
T1 construct: made in house; host or cells: E. coli BL21 (pRH281 vector, trp promoter)
Method: (§1) The ME reaction was measured with the production rate of NADH or NADPH via the absorbance at 340 nm. The reaction mixture in a saturated condition included 1 mM NAD(P)^+, 40 mM malate, and 10 mM MgCl2 in 50 mM Tris-HCl (pH 7.4). To determine the Km and kcat values, the concentration of one substrate was varied around its Km values while the concentrations of the other components were fixed at saturated concentrations.
C is the slope of the curve at its midpoint. […] All of the calculations were performed using the Sigma Plot 10.0 software program (Jandel Scientific, San Rafael, CA, USA).

[2] = target: T2, m-NAD(P)-ME (Homo sapiens, UniProt P23368); assay: Fumarate titration, activation of enzyme activity; format: biochemical; settings: WT; 15 mM L-malate, 10 mM MgCl2, 1 mM NAD+, pH 7.4; fumarate 0 to 6 mM
T2 construct: made in house; host or cells: E. coli BL21 (pRH281 vector, trp promoter)
T2 sequence (P23368 19-584): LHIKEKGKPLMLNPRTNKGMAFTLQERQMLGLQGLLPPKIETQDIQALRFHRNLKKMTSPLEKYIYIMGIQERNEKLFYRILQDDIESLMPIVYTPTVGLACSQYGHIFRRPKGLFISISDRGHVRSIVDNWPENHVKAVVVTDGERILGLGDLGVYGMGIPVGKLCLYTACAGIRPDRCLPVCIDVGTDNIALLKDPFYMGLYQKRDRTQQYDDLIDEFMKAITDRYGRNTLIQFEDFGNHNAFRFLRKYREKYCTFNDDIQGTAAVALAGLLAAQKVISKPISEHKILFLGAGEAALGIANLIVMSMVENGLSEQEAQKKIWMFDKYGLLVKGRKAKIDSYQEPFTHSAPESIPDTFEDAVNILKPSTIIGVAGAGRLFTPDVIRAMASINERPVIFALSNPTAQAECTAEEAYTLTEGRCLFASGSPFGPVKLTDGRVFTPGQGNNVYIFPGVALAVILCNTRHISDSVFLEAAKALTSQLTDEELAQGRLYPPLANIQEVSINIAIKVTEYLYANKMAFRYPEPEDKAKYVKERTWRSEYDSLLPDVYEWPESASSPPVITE
Method: as §1
Figure S2. Fumarate activating effect on human m-NAD(P)-ME WT and the exosite mutants.

T1 sequence (P23368 19-584): as above

| pIC50 [1] | maximal activation of the enzyme by fumarate [2] | SMILES |
| --- | --- | --- |
| 2.43 | – | Nc1ncnc2c1ncn2[C@@H]1O[C@H](COP(=O)(O)OP(=O)(O)O)[C@@H](O)[C@H]1O [ADP] |
| – | approximately 2 fold | O=C(O)/C=C/C(=O)O [FUM, fumarate] |
